Results on 1 compound are retold here after article PMC10526264, “VprBP/DCAF1 Triggers Melanomagenic Gene Silencing through Histone H2A Phosphorylation” (Biomedicines, 2023).

Structures are written as SMILES.

A word on the IC50: it is the concentration at which inhibition is half-maximal. A low value points to inhibition by little substance.

The target in this assay is VprBP/DCAF1 (Vpr binding protein) (Homo sapiens, UniProt Q9Y4B6). Description: Western blot of H2AT120p (VprBP substrate mark) in G361 and MeWo melanoma cells treated […] h with […] B32B3. The format is cell-based.
Sequence of VprBP/DCAF1 (Vpr binding protein) (Q9Y4B6 whole entry): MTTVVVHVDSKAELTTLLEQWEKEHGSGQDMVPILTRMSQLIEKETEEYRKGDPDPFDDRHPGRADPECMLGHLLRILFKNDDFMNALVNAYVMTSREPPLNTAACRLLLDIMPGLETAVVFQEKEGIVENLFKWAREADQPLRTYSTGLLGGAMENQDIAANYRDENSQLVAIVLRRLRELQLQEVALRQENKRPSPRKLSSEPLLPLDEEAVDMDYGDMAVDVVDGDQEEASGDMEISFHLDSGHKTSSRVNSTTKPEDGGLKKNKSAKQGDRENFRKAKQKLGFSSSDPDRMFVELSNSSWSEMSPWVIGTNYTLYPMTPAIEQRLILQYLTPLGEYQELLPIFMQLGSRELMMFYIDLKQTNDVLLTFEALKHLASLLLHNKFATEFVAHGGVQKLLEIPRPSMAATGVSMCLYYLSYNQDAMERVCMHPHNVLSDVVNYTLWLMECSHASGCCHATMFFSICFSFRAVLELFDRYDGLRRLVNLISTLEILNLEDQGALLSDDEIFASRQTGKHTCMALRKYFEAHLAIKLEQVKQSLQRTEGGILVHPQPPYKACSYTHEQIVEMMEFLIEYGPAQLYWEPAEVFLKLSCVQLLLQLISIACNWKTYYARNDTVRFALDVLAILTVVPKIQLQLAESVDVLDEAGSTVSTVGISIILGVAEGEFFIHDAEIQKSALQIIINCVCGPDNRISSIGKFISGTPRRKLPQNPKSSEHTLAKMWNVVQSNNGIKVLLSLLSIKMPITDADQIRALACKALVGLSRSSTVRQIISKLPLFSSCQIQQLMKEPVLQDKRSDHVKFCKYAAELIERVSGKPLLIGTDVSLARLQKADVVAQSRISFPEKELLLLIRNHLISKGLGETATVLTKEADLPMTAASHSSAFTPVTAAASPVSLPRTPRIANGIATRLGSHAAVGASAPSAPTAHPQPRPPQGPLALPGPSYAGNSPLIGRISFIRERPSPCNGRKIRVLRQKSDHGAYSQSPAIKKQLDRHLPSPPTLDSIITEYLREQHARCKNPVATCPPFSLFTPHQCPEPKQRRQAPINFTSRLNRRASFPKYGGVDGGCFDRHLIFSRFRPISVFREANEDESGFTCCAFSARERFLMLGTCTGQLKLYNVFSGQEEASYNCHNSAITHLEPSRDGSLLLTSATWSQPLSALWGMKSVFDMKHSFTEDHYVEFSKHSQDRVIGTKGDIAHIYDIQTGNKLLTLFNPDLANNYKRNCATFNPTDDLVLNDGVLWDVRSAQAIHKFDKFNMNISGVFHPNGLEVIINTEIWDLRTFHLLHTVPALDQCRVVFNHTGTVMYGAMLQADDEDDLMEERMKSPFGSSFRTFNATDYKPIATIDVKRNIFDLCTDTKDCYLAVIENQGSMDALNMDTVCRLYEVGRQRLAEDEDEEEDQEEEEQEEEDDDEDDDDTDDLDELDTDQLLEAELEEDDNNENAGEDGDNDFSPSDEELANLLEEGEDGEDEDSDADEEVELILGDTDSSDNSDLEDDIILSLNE

In turn, `C(=N\Nc1ncnc2sc3c(c12)CCCC3)/c1c[nH]c2ccccc12` [B32B3] showed an IC50 of 100 nM.
